The values below come from article PMC7407945, “Ranacyclin-NF, a Novel Bowman–Birk Type Protease Inhibitor from the Skin Secretion of the East Asian Frog, Pelophylax nigromaculatus” (Biology, 2020).

One experiment has as its system MRSA. The experiment in a line: Checkerboard assay, peptide with Gentamicin. It counts as cell-based, Staphylococcus aureus. The following applies: peptide with Gentamicin, class by ΣFIC. The protocol: Then, the microorganism cultures (1 × 10^6 cfu/mL) were inoculated into the plate wells and incubated at 37 °C for 18 h. The optical densities of the cultures were measured using an ELISA plate reader (Biotech Minneapolis, MN, USA). The lowest cumulative fractional inhibitory concentration (ΣFIC) was calculated with the following equation:(1) ΣFIC=Compound A treated in combination/Compound A, test in alone+Compound B treated in combination/Compound B, test in alone
ΣFIC ≤ 0.5 indicates synergy; 0.5 < Σ FIC ≤ 4 indicates an additive effect; and Σ FIC > 4 represents an antagonistic effect.

Another experiment concerns the target chymotrypsin (Bos taurus, UniProt P00766). In words: Chymotrypsin inhibition assay. More on the design: key: N.I.: there was no inhibitory activity. It is filed as biochemical. To be noted: substrate Succinyl-Ala-Ala-Pro-Phe-NHMec. The protocol:
Trypsin and chymotrypsin inhibition assays were performed as previously described. The substrate of trypsin and chymotrypsin were Phe-Pro-Arg-AMC and Succinyl-Ala-Ala-Pro-Phe-NHMec, respectively, and obtained from Bachem, Merseyside, UK. In the tryptase inhibition assay, peptide samples were first dissolved in tryptase assay buffer pH 7.6, containing 0.05 M Tris, 0.15 M NaCl and 0.2% (w/v) PEG 6000 (final volume 210 μL) to obtain different concentrations of 0.5, 1, 2 and 4 mM and then added to the wells of a black 96-well plate containing (Boc-Phe-Ser-Arg-NHMec, obtained from Bachem, Merseyside, UK) (50 μM). Before measurement, tryptase (2.5 μL from 1 mg/mL stock solution, Calbiochem, Nottingham, UK) was added to each well. The rate of hydrolysis of substrate was monitored continuously at 37 °C and 460 nm with a Fluostar Optima plate reader (BMG Labtech GmbH, Offenburg, Germany)

Bridge positions count the residues as written; N and C are the ends. Peptide text beside a SMILES is read from it.

Turning to `CC(C)C[C@H](NC(=O)[C@H](C)NC(=O)CN)C(=O)N[C@@H](CCCNC(=N)N)C(=O)NCC(=O)N[C@H]1CSSC[C@@H](C(=O)N[C@@H](Cc2ccccc2)C(N)=O)NC(=O)[C@@H]2CCCN2C(=O)[C@H](CCC(N)=O)NC(=O)[C@@H]2CCCN2C(=O)[C@@H]2CCCN2C(=O)[C@H](Cc2ccc(O)cc2)NC(=O)[C@H](CO)NC(=O)[C@H](CCCCN)NC(=O)[C@H]([C@@H](C)O)NC(=O)[C@H](Cc2c[nH]c3ccccc23)NC1=O` [RNF3L] (H-GALRGCWTKSYPPQPCF-NH2; disulfide 6-16; N-terminus assumed), the “effect of the combination with Gentamicin” value with MRSA was “additive effect (0.5 < Σ FIC ≤ 4 indicates an additive effect)”. The “Ki(µM) of Chymotrypsin” value on chymotrypsin is given as “N.I”.
